Patent publication US8633161B2, “Therapeutic agents for the treatment of leukemia” (The Ohio State University Research Foundation, priority 2005, dated 2014)
Counter-ions that a name gives are not always drawn. Like-named read-outs stand apart in the source and are kept apart here. Square brackets hold non-standard residues; d marks the D form. Peptide text beside a SMILES is read from it. * marks the point of attachment. Myristoyl = CCCCCCCCCCCCCC(=O)*; Nle = CCCC[C@H](N)C(=O)O

How the values were obtained:
[1] = target: T1, PP2A (Mus musculus, UniProt P63330); assay: PP2A IP phosphatase assay on lysates of treated cells; type: cell-based
T1 construct: endogenous in cells; host or cells: 32Dc13, 32D-BCR/ABL, 32D-BCR/ABL-T315I, 32D-p210 Y253H, BaF3-p210 T315I, K562, primary CML-BC CD34+ and NBM CD34+ cells
Method: PP2A phosphatase assays were carried out using the PP2A IP phosphatase assay kit (Upstate). Briefly, protein lysates (50 μg) in 100 μl of 20 mM HEPES (pH 7.0)/100 mM NaCl, 5 μg of PP2Ac antibody (Upstate), and 25 μl of Protein A-agarose were added to 400 μl of 50 mM Tris (pH 7.0)/100 mM CaCl2, and IPs were carried out at 4° C. for 2 hr. IPs were washed and used in the phosphatase reaction according to the manufacturer's protocol. Specificity of the PP2A assay was assessed by titration with okadaic acid and by ascertaining the absence of PP1a in the PP2A immunoprecipitates (Figure S2A). As internal control, the amount of immunoprecipitated PP2A was also monitored by anti-PP2Ac Western blots (Figure S2B).

[2] = i.p.; cited from earlier work
[3] = system: NBM CD34+ cells; assay: Methylcellulose colony formation of normal CD34+ marrow cells; type: cell-based, human; conditions: NBM CD34+ cells (normal CD34+ myeloid progenitors)
Method: The Ph^1 K562, the BCR/ABL-expressing 32Dc13 and BaF3 cells, and their derivative lines were maintained in culture in IMDM/10% FBS/2 mM L-glutamine. The SET shRNA-, HA-PP2Ac-, and HA-PP2Ac/FLAG-SET-expressing cells were generated by retroviral infection followed by either antibiotic-mediated selection or FACS-mediated sorting of the GFP+ (green fluorescent protein) cells as described (Perrotti et al., (2002), Nat. Genet. 30:48-58). The following cells were kind gifts: 32D-p210^Y253H (B. Calabretta; TJU, Philadelphia, Pa.); BaF3-p210^T315I (B. Druker; OHSU, Portland, Oreg.); TonB210.1 (G. Daley; Harvard University, Cambridge, Mass.). Frozen samples of CD34+ bone marrow cells (NBM) from different healthy donors were from AllCells LLC (Berkeley, Calif.). […] Erythroid differentiation of K562 and derivative cell lines was assessed by o-Dianisidine (Fast Blue B; Sigma) staining of methylcellulose colonies. […]
Methylcellulose colony formation assays were carried out by plating 103 or 5×10^4 cells from BCR/ABL cell lines or primary human CML and mouse BMC, respectively, in 0.9% MethoCult H4230 (Stem Cell Technologies Inc.). […] Colonies (>125 μm) from cell lines and primary cells were scored 7 and 15 days later, respectively.

[4] = system: BCR/ABL; assay: Western blot of BCR/ABL activity (phosphotyrosine) and expression; type: cell-based; conditions: for EC50: 18-24 hr, read-out: EC50 of downregulation of BCR/ABL; for BCR/ABL activity and expression: HA-PP2Ac-transduced 32D-BCR/ABL cells, okadaic acid 0.25 nM, 1 hr
Method: Cells (10^7) were lysed in 100 μl of RIPA buffer (150 mM NaCl, 1% NP-40, 0.1% SDS, 50 mM Tris [pH 8.0]) supplemented with 1 mM PMSF, 25 μg/ml aprotinin, 10 μg/ml leupeptin, 100 μg/ml pepstatin A, 5 mM benzamidine, 1 mM Na3VO4, 50 mM NaF, 10 mM β-glycerol-phosphate. After incubation on ice (30 min), lysates were clarified (12,000×g, 15 min, 4° C.), denatured, and subjected to SDS-PAGE and Western blot (Iervolino et al., 2002). The antibodies used were goat polyclonal anti-SET(I2PP2A), -pp32(I1PP2A), and -hnRNP A1 and rabbit polyclonal anti-SHP-1 (Santa Cruz Biotechnology); monoclonal anti-Abl (Ab-3), -c-myc (Ab-2), -phosphotyrosine PY20 (Ab-4), and -pBAD^S112 (Ab-1) (EMD); monoclonal anti-hnRNP A1 (9H10) (G. Dreyfuss, University of Pennsylvania, Philadelphia, Pa.); monoclonal anti-GRB2 and -Rb (BD TransLab Inc.); monoclonal anti-HA (Covance); monoclonal anti-PP2Ac, clone 1D6 (Upstate Inc.); monoclonal anti-FLAG, clone M2 (Sigma); monoclonal anti-pERK^T202/Y204 and rabbit polyclonal anti-pAKT^T308, pSTAT5^Y694, -pJak2^Y1007/1008, -Jak2, -BAD, -Akt, and -ERK1/2 (Cell Signaling Technology Inc.); monoclonal anti-STATS (Invitrogen); rabbit monoclonal anti-pPP2A^Y307 (Epitomics); rabbit polyclonal anti-PR65/A (Calbiochem). IPs were carried out in 20 mM HEPES (pH 7.0), 150 mM NaCl, and 0.2% NP-40 supplemented with protease and phosphatase inhibitors. Lysates were precleared and immunoprecipitated with Ab-coated beads for 3 hr at 4° C. After washings, IPs were subjected to SDS-PAGE and Western blot.

[5] = system: 32D-BCR/ABL (T315I) cells; conditions: for treated mice BCR/ABL negative and alive 18 weeks after cell injection: after 4 weeks from restarting therapy
[6] = system: imatinib-sensitive and -resistant BCR/ABL+ cell lines; assay: Methylcellulose colony formation of BCR/ABL cell lines; type: cell-based
Method: Methylcellulose colony formation assays were carried out by plating 103 or 5×10^4 cells from BCR/ABL cell lines or primary human CML and mouse BMC, respectively, in 0.9% MethoCult H4230 (Stem Cell Technologies Inc.). Where indicated, cells were plated in the presence of rhIL-3 (100 ng/ml) or rhG-CSF (25 ng/ml). Colonies (>125 μm) from cell lines and primary cells were scored 7 and 15 days later, respectively.

[7] = system: BCR/ABL-transduced wild-type and SHP-1-deficient CD34+ mouse marrow cells; assay: Clonogenic assay of BCR/ABL-transduced mouse CD34+ marrow cells; type: cell-based; conditions: forskolin 40 μM
Method: Normal murine hematopoietic marrow cells were obtained from the femurs of wild-type and SHP-1-deficient “viable moth eaten” mice (The Jackson Laboratory). After hypotonic lysis and Ficoll separation, cells were used for the isolation of the CD34+/lin− fraction (Miltenyi Biotech). […] Pear, University of Pennsylvania, Philadelphia, Pa.). GFP+ (Iervolino et al., 2002) wild-type and SHP-1−/− CD34+ cells (10^6) were treated or not with forskolin (40 μM; 48 hr) and used in clonogenic assay or processed for Western blot. Where indicated, cells were treated with the following: […] Methylcellulose colony formation assays were carried out by plating 103 or 5×10^4 cells from BCR/ABL cell lines or primary human CML and mouse BMC, respectively, in 0.9% MethoCult H4230 (Stem Cell Technologies Inc.). Where indicated, cells were plated in the presence of rhIL-3 (100 ng/ml) or rhG-CSF (25 ng/ml).

[8] = system: 32D-BCR/ABL cells; conditions: for mice still alive: 15 weeks postinjection
[9] = system: BCR/ABL+ cell lines and primary CML-BC CD34+ cells; assay: Growth and apoptosis (annexin V) in liquid culture of BCR/ABL+ cells; type: cell-based; conditions: after 48 hr of forskolin treatment
[10] = system: Akt; assay: Western blot of phosphorylated and total Akt; type: cell-based; conditions: okadaic acid (0.25 nM) added to FTY720
[11] = BCR/ABL+ cell lines and CML-BC CD34+ marrow blasts, exposure 18-24 hr, forskolin 40 μM
[12] = PP2A-expressing 32D-BCR/ABL cells, 25 μM, 8 hr

C=C[C@@]1(C)CC(=O)[C@@H]2[C@@]3(C)CCCC(C)(C)[C@@H]3[C@H](O)[C@H](OC(C)=O)[C@@]2(C)O1 [1,9-dideoxy-forskolin]
PP2A activity [1, 11]: enhanced
LD50 [2]: 68 mg/kg
decrease in IL-3-dependent clonogenicity / cytokine-driven colony formation [3]: ≤ 15%
BCR/ABL phosphorylation [4, 11]: abolished
EC50 ([4]; imatinib-resistant cells): 25 µM
EC50 ([4]; imatinib-sensitive cells): 18 µM
toxic side effects ([5]; 8 mg/kg/week i.p., 18 weeks after cell injection): no signs of toxic side effects
survival and BCR/ABL status (nested RT-PCR, peripheral blood) ([5]; 8 mg/kg/week i.p., after 4 weeks of treatment): all alive and BCR/ABL negative
treated mice BCR/ABL negative and alive 18 weeks after cell injection ([5]; of cell-injected mice): 50%
treated mice BCR/ABL negative and alive 18 weeks after cell injection ([5]; of treated mice): 100%
mice alive ([5]; after 7 weeks of treatment): 70%
remaining mice tested BCR/ABL+ ([5]; after suspension of treatment): 50%
mice relapsed and died of acute leukemia-like disease ([5]; within 4 weeks from the end of treatment): 20%

butyryl-forskolin
PP2A activity [1, 11]: enhanced
BCR/ABL phosphorylation [4, 11]: abolished
EC50 ([4]; imatinib-resistant cells): 25 µM
EC50 ([4]; imatinib-sensitive cells): 18 µM

Cc1ccc(NC(=O)c2ccc(CN3CCN(C)CC3)cc2)cc1Nc1nccc(-c2cccnc2)n1 [imatinib, imatinib mesylate]
PP2A activity ([1]; 32D-BCR/ABL cells, 1 μM, 24 hr): restored to normal levels
PP2A activity ([1]; imatinib-resistant BaF3p210 T315I cells): did not rescue

Cn1c(=O)c2[nH]cnc2n(C)c1=O [theophylline]
BCR/ABL expression/activity ([4]; 100 μM, 24 hr): did not affect

myristoylated-PKI(14-22)-amide (Myristoyl-SGRTGRRNA-NH2; SMILES CCCCCCCCCCCCCC(=O)N[C@@H](CO)C(=O)NCC(=O)N[C@@H](CCCNC(=N)N)C(=O)N[C@H](C(=O)NCC(=O)N[C@@H](CCCNC(=N)N)C(=O)N[C@@H](CCCNC(=N)N)C(=O)N[C@@H](CC(N)=O)C(=O)N[C@@H](C)C(N)=O)[C@@H](C)O; UniProt P61925 14-22, looked up, fragment)
forskolin-induced BCR/ABL downregulation ([4]; 4 μM, 24 hr, with forskolin): did not inhibit

COC[C@@H]([C@H](O)[C@H](O)C(=O)NCC[C@H](C)c1nc(/C=C/C[C@@H]2O[C@]3(C[C@@H](O)[C@@H]2C)O[C@H]([C@H](C[C@H](O)[C@H](C)[C@H](O)[C@H](C)/C=C(C)/C(C)=C/C=C/C(C)=C\C#N)OC)[C@H](OP(=O)(O)O)C3(C)C)co1)N(C)C [calyculin A]
BCR/ABL activity and expression [4]: restored

O.O.O.O.O.O.O.O.O.O=C([O-])[C@@H]1[O][Sb]2([O-])([O][Sb]34([OH])[O][C@H]([C@H](O)CO)[C@H]([O]3)[C@H](C(=O)[O-])[O]4)[O][C@H]([C@H](O)CO)[C@@H]1[O]2.[Na+].[Na+].[Na+] [sodium stibogluconate]
BCR/ABL phosphorylation ([4]; SET shRNA- and HA-PP2A-expressing 32D-BCR/ABL cells): restored

C=C[C@@]1(C)CC(=O)[C@]2(O)[C@@]3(C)[C@@H](O)CCC(C)(C)[C@@H]3[C@H](O)[C@H](OC(C)=O)[C@@]2(C)O1 [forskolin]
inhibition of clonogenic potential (average) [6]: 75%
LD50 [2]: 67 mg/kg
decrease of clonogenic potential [7]: ~70%
mice still alive ([8]; control mice that received only forskolin): 100%
mice still alive ([8]; forskolin-treated cell-injected mice): 40%
median survival ([8]; forskolin-treated mice injected with 32D-BCR/ABL cells): 8 weeks
percentage of apoptosis (annexin V+ cells) ([9]; BCR/ABL+ cell lines): 80%
percentage of apoptosis (annexin V+ cells) ([9]; primary CML-BC cells): 95%
EC50 ([4]; imatinib-resistant cells): 25 µM
EC50 ([4]; imatinib-sensitive cells): 18 µM

C=C1[C@@H](O)[C@@H]2O[C@]3(CC[C@H](/C=C/[C@@H](C)[C@@H]4CC(C)=C[C@@]5(O[C@H](C[C@@](C)(O)C(=O)O)CC[C@H]5O)O4)O3)CC[C@H]2O[C@@H]1[C@@H](O)C[C@H](C)[C@H]1O[C@@]2(CCCCO2)CC[C@H]1C [okadaic acid]
apoptosis and effect on PP2A targets (e.g. Akt dephosphorylation) observed with FTY720 [10]: abrogates in part
BCR/ABL activity and expression [4]: restored

CCCC[C@@H](C=O)NC(=O)[C@H](CC(C)C)NC(=O)[C@H](CC(C)C)NC(C)=O [ALLN] (Ac-Leu-Leu-[Nle]-aldehyde)
BCR/ABL expression [4, 12]: restored
PP2A-induced BCR/ABL tyrosine dephosphorylation [4, 12]: did not prevent
